In PMC8838583, “Inhibition of Human Monoamine Oxidases A and B by Specialized Metabolites Present in Fresh Common Fruits and Vegetables” (Plants, 2022):
Where two headings read alike, the source gives them in different places.

What was measured:
[1] = design: method as in PMID 21370449; conditions: after consumption of an apple smoothie; cited from earlier work
[2] = molecular target: T1, human MAO-B (Homo sapiens, UniProt P27338); assay: MAO-Glo bioluminescent MAO-B inhibition assay; format: biochemical; conditions: for Selectivity of inhibition between MAO-A and MAO-B, in words: comparison of MAO-A and MAO-B IC50 of Table 1
T1 construct: purchased MilliporeSigma (Milan, Italy); host or cells: baculovirus-infected insect cells (BTI-TN-5B1-4)
T1 sequence (P27338 1-520): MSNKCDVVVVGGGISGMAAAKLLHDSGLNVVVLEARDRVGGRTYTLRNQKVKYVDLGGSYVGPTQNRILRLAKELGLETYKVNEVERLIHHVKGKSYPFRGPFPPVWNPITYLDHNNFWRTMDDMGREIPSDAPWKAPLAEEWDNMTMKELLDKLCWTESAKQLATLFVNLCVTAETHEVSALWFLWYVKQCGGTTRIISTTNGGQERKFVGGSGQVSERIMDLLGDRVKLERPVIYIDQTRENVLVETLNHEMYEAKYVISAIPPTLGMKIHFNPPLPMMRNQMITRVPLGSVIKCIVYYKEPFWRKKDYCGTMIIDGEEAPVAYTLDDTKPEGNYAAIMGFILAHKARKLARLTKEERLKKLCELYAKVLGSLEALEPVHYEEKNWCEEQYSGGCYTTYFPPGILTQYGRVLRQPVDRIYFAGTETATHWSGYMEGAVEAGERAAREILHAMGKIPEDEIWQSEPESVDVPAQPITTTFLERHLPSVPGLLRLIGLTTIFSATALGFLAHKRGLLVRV

[3] = molecular target: T2, human MAO-A (Homo sapiens, UniProt P21397); assay: MAO-Glo bioluminescent MAO-A inhibition assay; format: biochemical; conditions: Table 1
T2 construct: purchased MilliporeSigma (Milan, Italy); host or cells: baculovirus-infected insect cells (BTI-TN-5B1-4)
T2 sequence (P21397 1-527): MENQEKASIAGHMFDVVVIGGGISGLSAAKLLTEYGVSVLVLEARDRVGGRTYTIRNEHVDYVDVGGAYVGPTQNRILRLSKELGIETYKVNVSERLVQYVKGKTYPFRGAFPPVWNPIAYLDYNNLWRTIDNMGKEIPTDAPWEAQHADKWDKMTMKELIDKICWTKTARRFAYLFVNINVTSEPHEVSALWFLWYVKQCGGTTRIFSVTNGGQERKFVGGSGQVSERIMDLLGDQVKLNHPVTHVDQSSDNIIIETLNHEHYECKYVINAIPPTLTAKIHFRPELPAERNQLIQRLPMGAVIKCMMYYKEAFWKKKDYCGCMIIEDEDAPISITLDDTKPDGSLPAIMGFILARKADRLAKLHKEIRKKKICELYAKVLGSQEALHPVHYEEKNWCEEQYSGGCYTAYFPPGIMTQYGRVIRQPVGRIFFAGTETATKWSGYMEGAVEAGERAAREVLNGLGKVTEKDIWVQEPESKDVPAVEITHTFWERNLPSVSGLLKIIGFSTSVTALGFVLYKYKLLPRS

[4] = Table 1, MAO-Glo, mean of quadruplicate determinations, kiwifruit as mg fruit fresh weight/mL, read-out: IC50 Value MAO-B (mg/mL) (converted)
[5] = Table 1, molarity, standard metabolites, read-out: IC50 Value MAO-B M
[6] = molarity, standard metabolites, read-out: IC50 Value MAO-A M

Compound | Level detected in ileostomy fluids [1] | IC50 [2, 4] | IC50 [2, 5] | Selectivity of inhibition between MAO-A and MAO-B, in words [2] | IC50 ([3]; IC50 Value MAO-A (mg/mL), MAO-Glo, mean of quadruplicate determinations, kiwifruit as mg fruit fresh weight/mL) | IC50 ([3]; IC50 Value MAO-A M, molarity, standard metabolites) | IC50 ([3]; MAO-Glo, mean of quadruplicate determinations, kiwifruit as mg fruit fresh weight/mL, read-out: IC50 Value MAO-A (mg/mL) (converted)) | IC50 [3, 6] | IC50 Value MAO-B ([2]; Table 1, MAO-Glo, mean of quadruplicate determinations, kiwifruit as mg fruit fresh weight/mL) | IC50 Value MAO-A ([3]; MAO-Glo, mean of quadruplicate determinations, kiwifruit as mg fruit fresh weight/mL)
O=C(O)[C@]1(O)C[C@@H](O)[C@@H](O)[C@H](O)C1 [D-(−)-Quinic acid, D-(−)-quinic acid] | ~ 70% | 34.3 mM | 34.4 ± 1.31 mM | selective activity against MAO-B | – | – | – | – | – | –
O=c1ccc2cc(O[C@@H]3O[C@H](CO)[C@@H](O)[C@H](O)[C@H]3O)c(O)cc2o1 [Esculin] | – | 12 mM | 12.1 ± 0.372 mM | inhibited both enzymes similarly | 11.5 mM | 11.5 ± 0.43 mM | – | – | – | –
O=C(O)/C=C/c1ccc(O)c(O)c1 [Caffeic acid, caffeic acid] | – | 0.444 mM | 0.439 ± 0.03 mM | – | – | – | 2.72 mM | 2.75 ± 0.126 mM | – | –
(+)-catechin hydrate | – | – | 4.03 ± 0.122 mM | inhibited both enzymes similarly | – | – | – | 6.46 ± 0.121 mM | 1170 ± 40 mg/L | 1880 ± 40 mg/L
